Patent US20250154219A1, “PEPTIDE ANALOGS” (Adepthera LLC, priority 2017, published 2025)

Key:
CLR/RAMP2 receptor [1] = target: T1, CLR/RAMP2 receptor (Homo sapiens, UniProt O60895+Q16602); assay: CLR/RAMP2 arrestin receptor-activation assay (agonist mode); type: cell-based; details: agonist mode; positive control ADM;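 further: agonist dose-response in recombinant cell lines stably expressing each receptor complex, duplicate wells over 10 threefold dilutions from a top concentration of 1.0 µM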
Experimental: (§1) Using a receptor activation assay, the dose-dependent stimulatory response of peptide agonists on a CLR/RAMP1 receptor, a CLR/RAMP2, or a CLR/RAMP3 receptor complex was determined. A cell line carrying the recombinant CLR/RAMP1, CLR/RAMP2, or a CLR/RAMP3 receptor was employed in the assay. Peptide agonist activities were tested, in duplicate, at 10 different concentrations, starting with 1.0 μM and serially diluted 3-fold, in DMSO. […] The CLR/RAMP1 CAMP, CLR/RAMP2 arrestin, and CLR/RAMP3 CAMP assays (DiscoveRx, Fremont, Calif.) were used.
(§2) The pharmacology of superagonistic activity of synthetic analogs was studied in cells that stably express CLR/RAMP1 (1321N1 cells), CLR/RAMP2 (CHO-K1 cells), or CLR/RAMP3 (CHO-K1 cells) receptors.
(§3) For the Arrestin assays, PathHunter cell lines (Discoverx Inc.) were expanded from freezer stocks, and seeded in a total volume of 20 μL into white walled, 384-well microplates and incubated at 37 C for the appropriate time prior to testing. For agonist determination, cells were incubated with sample to induce response. […] The microplates were read following signal generation with a PerkinElmer Envision™ instrument for chemiluminescent signal detection.
(§4) The compound activity was analyzed using a CBIS data analysis suite (ChemInnovation, CA). For agonist mode assays, percentage activity was calculated using the following formula:
(§5) % Activity=100%×(mean RLU of test sample−mean RLU of vehicle control)/(mean MAX control ligand−mean RLU of vehicle control).

CLR/RAMP1 receptor [2] = target: T2, CLR/RAMP1 receptor (Homo sapiens, UniProt O60894+Q16602); assay: CLR/RAMP1 cAMP receptor-activation assay (agonist mode); type: cell-based; details: agonist mode; positive control β-CGRP;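 further: Dose–response over 10 threefold dilutions from 1.0 µM, run in duplicate, luminescent cAMP detection (RLU), activity scaled between vehicle control (0%) and maximal control (100%)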
Experimental: as §1, §2
(§6) For the analysis of Gs-coupled CAMP production, cAMP Hunter cell lines were expanded from freezer stocks, and cells were seeded in a total volume of 20 μL into white walled, 384-well microplates and incubated at 37 C for the appropriate time prior to testing. The CAMP modulation was determined using the DiscoverX HitHunter CAMP XS+ assay. For agonistic activity determination, cells were incubated with sample to induce response. Media was aspirated from cells and replaced with 15 μL 2:1 HBSS/10 mM Hepes: CAMP XS+Ab reagent. […] For Gs-coupled agonistic assays, percentage activity is calculated using the following formula: % Activity=100%×(mean RLU of test sample−mean RLU of vehicle control)/(mean RLU of MAX control−mean RLU of vehicle control).

[3] = target: T3, type 1 angiotensin II receptor AGTR1 (Homo sapiens, UniProt P30556); assay: AGTR1 calcium flux assay, antagonist mode; type: cell-based
T3 sequence (P30556 1-359): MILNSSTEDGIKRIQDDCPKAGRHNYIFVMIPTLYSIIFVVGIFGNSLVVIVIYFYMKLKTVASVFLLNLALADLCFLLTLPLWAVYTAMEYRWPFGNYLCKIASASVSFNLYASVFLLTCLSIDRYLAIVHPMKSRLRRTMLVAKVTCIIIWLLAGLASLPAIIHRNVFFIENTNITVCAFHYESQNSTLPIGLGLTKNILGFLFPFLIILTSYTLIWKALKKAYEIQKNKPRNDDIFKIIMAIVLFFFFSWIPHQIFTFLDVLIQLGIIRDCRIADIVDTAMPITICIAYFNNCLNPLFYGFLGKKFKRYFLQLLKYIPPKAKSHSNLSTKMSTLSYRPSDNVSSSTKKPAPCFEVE
Experimental: (§7) The antagonistic activities toward BDKRB1 and AGTR1 were assayed with a BDKRB1 calcium flux assay and an AGTR1 calcium flux assay (Discoverx Inc.), respectively.
(§8) For antagonist determination, cells were pre-incubated with sample followed by agonist challenge at the EC80 concentration. Intermediate dilution of sample stocks was performed to generate 3× sample in assay buffer. After dye loading, cells were removed from the incubator and 10 μL 3× sample was added. Cells were incubated for 30 minutes at room temperature in the dark to equilibrate plate temperature. […] Compound antagonistic activity was measured on a FLIPR Tetra (MDS), and calcium mobilization was monitored for 2 minutes and 10 μL EC80 agonist in HBSS/20 mM Hepes was added to the cells 5 seconds into the assay.
(§9) For antagonist assays, percentage inhibition is calculated using the following formula: % Inhibition=100%×(1−(mean RFU of test sample−mean RFU of vehicle control)/(mean RFU of EC80 control−mean RFU of vehicle control)).

[4] = target: T4, bradykinin receptor 1 (BDKRB1) (Homo sapiens, UniProt P46663); assay: BDKRB1 calcium flux assay, antagonist mode; type: cell-based; details: IC50 column pair
T4 sequence (P46663 1-353): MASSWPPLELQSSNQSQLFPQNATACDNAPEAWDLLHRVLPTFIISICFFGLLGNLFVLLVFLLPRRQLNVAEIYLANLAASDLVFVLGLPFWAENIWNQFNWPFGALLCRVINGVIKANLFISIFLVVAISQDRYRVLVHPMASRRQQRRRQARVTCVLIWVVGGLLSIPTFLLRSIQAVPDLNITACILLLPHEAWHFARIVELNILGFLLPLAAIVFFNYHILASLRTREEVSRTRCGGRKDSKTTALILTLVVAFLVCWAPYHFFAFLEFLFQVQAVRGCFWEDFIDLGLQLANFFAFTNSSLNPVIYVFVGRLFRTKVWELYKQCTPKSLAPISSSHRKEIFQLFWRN
Experimental: as §7, §8, §9

apelin receptor AGTRL1 = target: T5, apelin receptor AGTRL1 (Homo sapiens, UniProt P35414); assay: AGTRL1 cAMP assay; type: cell-based
T5 sequence (P35414 1-380): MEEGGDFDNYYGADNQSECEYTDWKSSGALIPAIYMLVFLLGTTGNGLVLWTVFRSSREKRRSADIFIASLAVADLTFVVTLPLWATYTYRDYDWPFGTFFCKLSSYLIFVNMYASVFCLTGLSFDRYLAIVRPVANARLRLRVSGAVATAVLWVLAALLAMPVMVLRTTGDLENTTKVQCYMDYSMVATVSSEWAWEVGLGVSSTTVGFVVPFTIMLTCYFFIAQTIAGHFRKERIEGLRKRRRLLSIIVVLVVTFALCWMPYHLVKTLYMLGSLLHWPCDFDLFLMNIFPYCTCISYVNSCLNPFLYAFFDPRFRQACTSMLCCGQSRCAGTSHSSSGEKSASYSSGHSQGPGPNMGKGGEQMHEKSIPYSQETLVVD
Experimental: (§10) The agonistic activities toward SSTR2, NTSR1, and AGTRL1 were assayed with an SSTR2 arrestin assay, an NTSR1 calcium flux assay, and an AGTRL1 CAMP assay (Discoverx Inc.), respectively.
as §6

CLR/RAMP3 receptor = CLR/RAMP3 receptor (Homo sapiens, UniProt O60896+Q16602); assay: CLR/RAMP3 cAMP assay, antagonist mode; type: cell-based
Experimental: (§11) A cell line carrying the recombinant CLR/RAMP1, CLR/RAMP2, or a CLR/RAMP3 receptor was employed in the assay. […] The CLR/RAMP1 CAMP, CLR/RAMP2 arrestin, and CLR/RAMP3 CAMP assays (DiscoveRx, Fremont, Calif.) were used.
(§12) For the analysis of antagonistic activity, synthetic analogs were pre-incubated with the cells before adding the reference ligand at its EC80. […] For the determination of antagonistic activity, cells were pre-incubated with sample followed by agonist challenge at the EC80 concentration. […] After appropriate compound incubation, assay signal was generated through incubation with 20 μL cAMP XS+ED/CL lysis cocktail for one hour followed by incubation with 20 μL cAMP XS+EA reagent for three hours at room temperature. Microplates were read following signal generation with a PerkinElmer Envision™ instrument for chemiluminescent signal detection.
(§13) For the antagonistic activity assay, percentage inhibition is calculated using the following formula: % Inhibition=100%×(1−(mean RLU of test sample−mean RLU of vehicle control)/(mean RLU of EC80 control−mean RLU of vehicle control)).

CLR/RAMP2 receptor [5] = target: T1, CLR/RAMP2 receptor; assay: CLR/RAMP2 arrestin assay, antagonist mode (ADM-stimulated); type: cell-based
Experimental: A cell line carrying the recombinant CLR/RAMP1, CLR/RAMP2, or a CLR/RAMP3 receptor was employed in the assay. Peptide agonist activities were tested, in duplicate, at 10 different concentrations, starting with 1.0 μM and serially diluted 3-fold, in DMSO. […] The CLR/RAMP1 CAMP, CLR/RAMP2 arrestin, and CLR/RAMP3 CAMP assays (DiscoveRx, Fremont, Calif.) were used.
For the analysis of antagonistic activity, synthetic analogs were pre-incubated with the cells before adding the reference ligand at its EC80. […] For antagonistic activity determination, cells were pre-incubated with antagonist followed by agonist challenge at the EC80 concentration. […] Then, 5 μL of 6× EC80 agonist in assay buffer was added to the cells and incubated at 37 C or room temperature for 90 or 180 minutes.
The microplates were read following signal generation with a PerkinElmer Envision™ instrument for chemiluminescent signal detection.
% Activity=100%×(mean RLU of test sample−mean RLU of vehicle control)/(mean MAX control ligand−mean RLU of vehicle control). For antagonistic activity assays, percentage inhibition was calculated using the following formula: % Inhibition=100%×(1−(mean RLU of test sample−mean RLU of vehicle control)/(mean RLU of EC80 control−mean RLU of vehicle control)).

CLR/RAMP1 receptor [6] = target: T2, CLR/RAMP1 receptor; assay: CLR/RAMP1 cAMP assay, antagonist mode (CGRP-stimulated); type: cell-based; details: antagonist mode
Experimental: as §11, §12, §13

[7] = target: somatostatin receptor SSTR2 (Homo sapiens, UniProt P30874); details: arrestin assay
somatostatin receptor SSTR2, sequence (P30874 whole entry): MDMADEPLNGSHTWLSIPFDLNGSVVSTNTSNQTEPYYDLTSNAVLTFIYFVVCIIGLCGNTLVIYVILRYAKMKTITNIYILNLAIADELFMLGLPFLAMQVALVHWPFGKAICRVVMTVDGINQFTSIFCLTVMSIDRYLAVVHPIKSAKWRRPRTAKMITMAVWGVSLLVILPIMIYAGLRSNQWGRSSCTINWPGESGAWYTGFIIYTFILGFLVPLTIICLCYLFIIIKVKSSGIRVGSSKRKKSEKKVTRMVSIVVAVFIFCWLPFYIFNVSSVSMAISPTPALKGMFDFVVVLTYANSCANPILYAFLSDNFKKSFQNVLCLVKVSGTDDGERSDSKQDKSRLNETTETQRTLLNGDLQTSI
Experimental: as §10, §3, §4, §5

T1 sequence (Q16602 23-461): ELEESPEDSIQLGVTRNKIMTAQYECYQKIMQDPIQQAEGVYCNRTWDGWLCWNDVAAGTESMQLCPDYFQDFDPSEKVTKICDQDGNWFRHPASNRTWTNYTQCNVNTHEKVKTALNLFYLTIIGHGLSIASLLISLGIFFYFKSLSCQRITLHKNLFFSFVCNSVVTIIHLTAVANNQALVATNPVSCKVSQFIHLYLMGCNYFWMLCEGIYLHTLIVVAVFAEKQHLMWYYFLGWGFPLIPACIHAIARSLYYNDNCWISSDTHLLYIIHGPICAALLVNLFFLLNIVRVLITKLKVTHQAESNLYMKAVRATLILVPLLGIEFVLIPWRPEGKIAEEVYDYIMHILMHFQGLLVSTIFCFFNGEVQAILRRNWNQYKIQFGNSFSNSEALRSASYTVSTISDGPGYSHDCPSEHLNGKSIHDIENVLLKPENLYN
T1 sequence (O60895 43-175): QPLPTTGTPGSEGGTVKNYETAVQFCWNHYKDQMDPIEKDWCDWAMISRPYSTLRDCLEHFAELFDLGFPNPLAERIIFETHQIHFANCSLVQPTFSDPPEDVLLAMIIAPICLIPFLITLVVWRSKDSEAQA
T2 sequence (Q16602 23-461): as the sequence (Q16602 23-461) above
T2 sequence (O60894 27-148): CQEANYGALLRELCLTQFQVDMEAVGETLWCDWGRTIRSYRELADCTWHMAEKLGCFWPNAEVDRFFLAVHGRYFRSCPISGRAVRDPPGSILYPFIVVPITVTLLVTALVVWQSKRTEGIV
CLR/RAMP3 receptor, sequence (Q16602 23-461): as the sequence (Q16602 23-461) above
CLR/RAMP3 receptor, sequence (O60896 24-148): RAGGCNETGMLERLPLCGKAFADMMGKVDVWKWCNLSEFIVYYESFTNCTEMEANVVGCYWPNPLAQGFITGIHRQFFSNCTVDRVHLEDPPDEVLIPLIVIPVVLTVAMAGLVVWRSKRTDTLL

Compound	CLR/RAMP2 Max Activity % of positive control (CLR/RAMP2 receptor [1])	CLR/RAMP1 Max Activity % of positive control (CLR/RAMP1 receptor [2])	AGTRL1 Max Activity (apelin receptor AGTRL1)	further results
Sar-RVYVHPA-miniPEG-K(PAL)GCRFGTCTVQKLAHQIYQFTDKDVAPRSKISPQGY-NH2 [SEQ ID NO: 234]	86 % of positive control	132 % of positive control		AGTR1 Max Activity (IC50 column pair) [3]: 104 % of positive controls
Ace-KRPPGFS-DβNal-I-miniPEG-K(PAL)GCRFGTCTVQKLAHQIYQFTDKDVAPRSKISPQGY-NH2 [SEQ ID NO: 231]	46 % of positive control	115 % of positive control		BDKRB1 Max Activity [4]: 109 % of positive controls
(G1p)RPRLSHKGPMPF [Apelin 13, reference compound]			100 % of positive controls	
Pal-KVQKLAHQSAPVDPSSPHSY-NH2 [SEQ ID NO: 124]				CLR/RAMP3 Max Activity % of positive control (antagonist) (CLR/RAMP3 receptor): 102 % of positive control; CLR/RAMP2 Max Activity % of positive control (antagonist) (CLR/RAMP2 receptor [5]): 103 % of positive control; CLR/RAMP1 Max Activity % of positive control (antagonist) (CLR/RAMP1 receptor [6]): 95 % of positive control
(Glp)RPRLSHKGP(Nle)PF-miniPEG-K(PAL)GCRFGTCTVQKLAHQIYQFTDKDVAPRSKISPQGY-NH2 [SEQ ID NO: 228]	74 % of positive control	130 % of positive control	97 % of positive controls	
CSCC[C@H](NC(=O)[C@H](C)NC(=O)[C@@H]1CCCN1C(=O)[C@H](CC(N)=O)NC(=O)[C@H](CO)NC(=O)[C@H](CC(N)=O)NC(=O)[C@H](C)NC(=O)[C@@H](N)CO)C(=O)N[C@@H](C)C(=O)N1CCC[C@H]1C(=O)N[C@@H](CCCNC(=N)N)C(=O)N[C@@H](CCC(=O)O)C(=O)N[C@@H](CCCNC(=N)N)C(=O)N[C@@H](CCCCN)C(=O)N[C@@H](C)C(=O)NCC(=O)N[C@H]1CSSC[C@@H](C(=O)O)NC(=O)[C@H](CO)NC(=O)[C@H]([C@@H](C)O)NC(=O)[C@H](Cc2ccccc2)NC(=O)[C@H]([C@@H](C)O)NC(=O)[C@H](CCCCN)NC(=O)[C@H](Cc2c[nH]c3ccccc23)NC(=O)[C@H](Cc2ccccc2)NC(=O)[C@H](Cc2ccccc2)NC(=O)[C@H](CC(N)=O)NC(=O)[C@H](CCCCN)NC1=O [Somatostatin 28]				SSTR2 Max Activity [7]: 102 % of positive controls
